# From PubChem BioAssay AID1963971 (Molecular Pharmacology Branch, DTP, NCI, 2024)
# Test system: 953936-095-R-J2-PDC spheroids with HUVEC/MSC, viability
# Assay: Anticancer human tumor 953936-095-R-J2-PDC patient-derived cervical squamous cell carcinoma cell line growth inhibition [PI3K]
# Settings: for IC50: curve of first compound; for viability, T/C: stronger effect = lower value
# In short: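 Targeted small molecules plus PI3K inhibitors, half-log dose series from Cmax (default top 10 microM), were applied to heterotypic spheroids of cancer cells with HUVEC and MSCs. Viability indicated growth inhibition.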
# [1] = second compound 0.00316 µM, first compound 0.0316 µM
# [2] = second compound 0.00316 µM, first compound 0.1 µM
# [3] = second compound 0.00316 µM, first compound 0.316 µM
# [4] = second compound 0.00316 µM, first compound 1 µM
# [5] = second compound 0.01 µM, first compound 0.0316 µM
# [6] = second compound 0.01 µM, first compound 0.1 µM
# [7] = second compound 0.01 µM, first compound 0.316 µM
# [8] = second compound 0.01 µM, first compound 1 µM
# [9] = second compound 0.0316 µM, first compound 0.0316 µM
# [10] = second compound 0.0316 µM, first compound 0.1 µM
# [11] = second compound 0.0316 µM, first compound 0.316 µM
# [12] = second compound 0.0316 µM, first compound 1 µM
# [13] = second compound 0.1 µM, first compound 0.0316 µM
# [14] = second compound 0.1 µM, first compound 0.1 µM
# [15] = second compound 0.1 µM, first compound 0.316 µM
# [16] = second compound 0.1 µM, first compound 1 µM
# [17] = second compound 0.316 µM, first compound 0.0316 µM
# [18] = second compound 0.316 µM, first compound 0.1 µM
# [19] = second compound 0.316 µM, first compound 0.316 µM
# [20] = second compound 0.316 µM, first compound 1 µM
# [21] = second compound 1 µM, first compound 0.0316 µM
# [22] = second compound 1 µM, first compound 0.1 µM
# [23] = second compound 1 µM, first compound 0.316 µM
# [24] = second compound 1 µM, first compound 1 µM
# [25] = second compound 0.00316 µM, first compound 3.16 µM
# [26] = second compound 0.00316 µM, first compound 10 µM
# [27] = second compound 0.01 µM, first compound 3.16 µM
# [28] = second compound 0.01 µM, first compound 10 µM
# [29] = second compound 0.0316 µM, first compound 3.16 µM
# [30] = second compound 0.0316 µM, first compound 10 µM
# [31] = second compound 0.1 µM, first compound 3.16 µM
# [32] = second compound 0.1 µM, first compound 10 µM
# [33] = second compound 0.316 µM, first compound 3.16 µM
# [34] = second compound 0.316 µM, first compound 10 µM
# [35] = second compound 1 µM, first compound 3.16 µM
# [36] = second compound 1 µM, first compound 10 µM
# 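Also: spheroids exposed to compounds for seven days before read-out.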
compound,measurement,setting,value
CCN1CCN(Cc2ccc(Nc3ncc(F)c(-c4cc(F)c5nc(C)n(C(C)C)c5c4)n3)nc2)CC1 + COc1c(OCCCN2CCOCC2)ccc2c3n(c(=NC(=O)c4cnc(N)nc4)nc12)CCN3,IC50,second compound 0.00316 µM,> 1000 nM
same,IC50,second compound 0.01 µM,> 1000 nM
same,IC50,second compound 0.0316 µM,< 3.16 nM
same,IC50,second compound 0.1 µM,< 3.16 nM
same,IC50,second compound 0.316 µM,< 3.16 nM
same,IC50,second compound 1 µM,< 3.16 nM
same,"viability, T/C","second compound 0.00316 µM, first compound 0.00316 µM",92.5%
same,"viability, T/C","second compound 0.00316 µM, first compound 0.01 µM",91.2%
same,"viability, T/C",[1],87%
same,"viability, T/C",[2],91.7%
same,"viability, T/C",[3],76.5%
same,"viability, T/C",[4],67.7%
same,"viability, T/C","second compound 0.01 µM, first compound 0.00316 µM",70.8%
same,"viability, T/C","second compound 0.01 µM, first compound 0.01 µM",75%
same,"viability, T/C",[5],69.7%
same,"viability, T/C",[6],60.7%
same,"viability, T/C",[7],56%
same,"viability, T/C",[8],55.5%
same,"viability, T/C","second compound 0.0316 µM, first compound 0.00316 µM",40.5%
same,"viability, T/C","second compound 0.0316 µM, first compound 0.01 µM",40.9%
same,"viability, T/C",[9],37.7%
same,"viability, T/C",[10],33.1%
same,"viability, T/C",[11],35.9%
same,"viability, T/C",[12],31.7%
same,"viability, T/C","second compound 0.1 µM, first compound 0.00316 µM",20%
same,"viability, T/C","second compound 0.1 µM, first compound 0.01 µM",17.5%
same,"viability, T/C",[13],15.2%
same,"viability, T/C",[14],13.8%
same,"viability, T/C",[15],14.2%
same,"viability, T/C",[16],15.6%
same,"viability, T/C","second compound 0.316 µM, first compound 0.00316 µM",6%
same,"viability, T/C","second compound 0.316 µM, first compound 0.01 µM",5.63%
same,"viability, T/C",[17],4.91%
same,"viability, T/C",[18],5.77%
same,"viability, T/C",[19],4.23%
same,"viability, T/C",[20],6.22%
same,"viability, T/C","second compound 1 µM, first compound 0.00316 µM",1.99%
same,"viability, T/C","second compound 1 µM, first compound 0.01 µM",1.61%
same,"viability, T/C",[21],1.43%
same,"viability, T/C",[22],1.48%
same,"viability, T/C",[23],1.73%
same,"viability, T/C",[24],2.54%
Cn1ncc(Cl)c1-c1cc(C(=O)NC(CN)Cc2cccc(F)c2)sc1Cl (stereo unspecified) + COc1c(OCCCN2CCOCC2)ccc2c3n(c(=NC(=O)c4cnc(N)nc4)nc12)CCN3,IC50,second compound 0.00316 µM,486 nM
same,IC50,second compound 0.01 µM,337 nM
same,IC50,second compound 0.0316 µM,< 31.6 nM
same,IC50,second compound 0.1 µM,< 31.6 nM
same,IC50,second compound 0.316 µM,< 31.6 nM
same,IC50,second compound 1 µM,< 31.6 nM
same,"viability, T/C",[1],81.2%
same,"viability, T/C",[2],85.4%
same,"viability, T/C",[3],54.1%
same,"viability, T/C",[4],36.5%
same,"viability, T/C",[25],17.8%
same,"viability, T/C",[26],10.2%
same,"viability, T/C",[5],69.4%
same,"viability, T/C",[6],68.6%
same,"viability, T/C",[7],49.8%
same,"viability, T/C",[8],28.7%
same,"viability, T/C",[27],14.4%
same,"viability, T/C",[28],8.14%
same,"viability, T/C",[9],39.1%
same,"viability, T/C",[10],36.8%
same,"viability, T/C",[11],32.5%
same,"viability, T/C",[12],19.1%
same,"viability, T/C",[29],9.8%
same,"viability, T/C",[30],4.58%
same,"viability, T/C",[13],21.8%
same,"viability, T/C",[14],17.8%
same,"viability, T/C",[15],14.3%
same,"viability, T/C",[16],12.9%
same,"viability, T/C",[31],6.24%
same,"viability, T/C",[32],2.41%
same,"viability, T/C",[17],5.73%
same,"viability, T/C",[18],5.77%
same,"viability, T/C",[19],6.01%
same,"viability, T/C",[20],3.54%
same,"viability, T/C",[33],3.19%
same,"viability, T/C",[34],1.52%
same,"viability, T/C",[21],1.54%
same,"viability, T/C",[22],1.61%
same,"viability, T/C",[23],1.15%
same,"viability, T/C",[24],1.37%
same,"viability, T/C",[35],1.11%
same,"viability, T/C",[36],0.46%
Cn1nccc1Nc1nccc(-c2ccn(C(CO)c3ccc(Cl)c(F)c3)c(=O)c2)n1 (stereo unspecified) + COc1c(OCCCN2CCOCC2)ccc2c3n(c(=NC(=O)c4cnc(N)nc4)nc12)CCN3,IC50,second compound 0.00316 µM,> 10000 nM
same,IC50,second compound 0.01 µM,> 10000 nM
same,IC50,second compound 0.0316 µM,< 31.6 nM
same,IC50,second compound 0.1 µM,< 31.6 nM
same,IC50,second compound 0.316 µM,< 31.6 nM
same,IC50,second compound 1 µM,< 31.6 nM
same,"viability, T/C",[1],79.8%
same,"viability, T/C",[2],78.6%
same,"viability, T/C",[3],85.1%
same,"viability, T/C",[4],68.8%
same,"viability, T/C",[25],69.8%
same,"viability, T/C",[26],67.5%
same,"viability, T/C",[5],63.5%
same,"viability, T/C",[6],64.7%
same,"viability, T/C",[7],67.3%
same,"viability, T/C",[8],61.7%
same,"viability, T/C",[27],59.4%
same,"viability, T/C",[28],49.1%
same,"viability, T/C",[9],39.4%
same,"viability, T/C",[10],38.2%
same,"viability, T/C",[11],36.2%
same,"viability, T/C",[12],30.5%
same,"viability, T/C",[29],32.3%
same,"viability, T/C",[30],31.4%
same,"viability, T/C",[13],16.1%
same,"viability, T/C",[14],15.6%
same,"viability, T/C",[15],12.8%
same,"viability, T/C",[16],10.8%
same,"viability, T/C",[31],8.15%
same,"viability, T/C",[32],5.83%
same,"viability, T/C",[17],4.89%
same,"viability, T/C",[18],4.56%
same,"viability, T/C",[19],3.55%
same,"viability, T/C",[20],2.04%
same,"viability, T/C",[33],1.28%
same,"viability, T/C",[34],1.21%
same,"viability, T/C",[21],1.1%
same,"viability, T/C",[22],1.11%
same,"viability, T/C",[23],0.44%
same,"viability, T/C",[24],0.35%
same,"viability, T/C",[35],0.28%
same,"viability, T/C",[36],0.34%
